Assay results published in patent publication US10294234B2, “HIV inhibitor compounds” (priority 2017, dated 2019).
Like-named read-outs stand apart in the source and are kept apart here.

What was measured:
[1] = Outline: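 LC/MS/MS read-out of parent compound remaining; in vitro t1/2 converted to Clint. Incubation: 1 uM compound, 0.5 mg/mL dog/rat/human liver microsomes, NADPH-regenerating system, duplicate sets, time-points 2–65 minutes.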
[2] = tested on: HIV-1 (IIIB) in MT-4 cells; test: MT-4 HIV assay; format: cell-based; conditions: HIV-1 (IIIB), MT-4 cells, 5 days, Cell Titer Glo, read-out: EC50
Outline: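 Antiviral activity was read by Cell Titer Glo after a 5-day, 37 °C culture of MT-4 cells pre-infected with a 1:250 dilution of HIV-1 (IIIB). Compounds were tested as threefold dilution series in complete RPMI. Controls were no drug, mock infection and 5 uM AZT.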

[3] = Human immunodeficiency virus 1, MT4, 120 h
[4] = human liver microsomes 0.5 mg/mL, 1 uM compound, NADPH
[5] = rat liver microsomes 0.5 mg/mL, 1 uM compound, NADPH

| Compound | Human Pred Cl. ([1]; human, microsomes) | Rat. Pred. Cl. ([1]; rat, microsomes) | EC50 [2, 3] | Human Pred Cl. [1, 4] | Rat. Pred. Cl. [1, 5] | EC50 [2] |
| --- | --- | --- | --- | --- | --- | --- |
| COC(=O)N[C@H](C(=O)N[C@@H](Cc1ccc(C#Cc2ccc(N3CC4CC(C3)N4C3COC3)nc2)cc1)[C@@H](O)CN(Cc1c(F)cc(-c2cnn(C(F)F)c2)cc1F)NC(=O)[C@@H](NC(=O)OC)C(C)(C)C(F)(F)F)C(C)(C)C(F)(F)F [Example 60, Methyl ((5S,8S,9S,14S)-11-(4-(1-(difluoromethyl)-1H-pyrazol-4-yl)-2,6-difluorobenzyl)-16,16,16-trifluoro-9-hydroxy-15,15-dimethyl-8-(4-((6-(6-(oxetan-3-yl)-3,6-diazabicyclo[3.1.1]heptan-3-yl)pyridin-3-yl)ethynyl)benzyl)-3,6,13-trioxo-5-(1,1,1-trifluoro-2-methylpropan-2-yl)-2-oxa-4,7,11,12-tetraazahexadecan-14-yl)carbamate] | 0.12 L/H/kg | 0.65 L/H/kg | 3.42 nM | – | – | – |
| COC(=O)N[C@H](C(=O)N[C@@H](Cc1ccc(C#Cc2ccc(N3CC4CC(CN(C(C)=O)C4)C3)nc2)cc1)[C@@H](O)CN(Cc1c(F)cc(-c2cnn(C(F)F)c2)cc1F)NC(=O)[C@@H](NC(=O)OC)C(C)(C)C(F)(F)F)C(C)(C)C(F)(F)F [Example 67, Methyl ((5S,8S,9S,14S)-8-(4-((6-(7-acetyl-3,7-diazabicyclo[3.3.1]nonan-3-yl)pyridin-3-yl)ethynyl)benzyl)-1-(4-(1-(difluoromethyl)-1H-pyrazol-4-yl)-2,6-difluorobenzyl)-16,16,16-trifluoro-9-hydroxy-15,15-dimethyl-3,6,13-trioxo-5-(1,1,1-trifluoro-2-methylpropan-2-yl)-2-oxa-4,7,11,12-tetraazahexadecan-14-yl)carbamate] | – | – | 6.25 nM | 0.41 L/H/kg | 1.43 L/H/kg | – |
| COC(=O)N[C@H](C(=O)N[C@@H](Cc1ccc(-c2ccc(N3CC4CCC(C3)N4C3COC3)nc2)cc1)[C@@H](O)CN(Cc1c(F)cc(-c2ccn(C)n2)cc1F)NC(=O)[C@@H](NC(=O)OC)C(C)(C)C(F)(F)F)C(C)(C)C(F)(F)F [Example 207, Methyl ((5S,8S,9S,14S)-11-(2,6-difluoro-4-(1-methyl-1H-pyrazol-3-yl)benzyl)-16,16,16-trifluoro-9-hydroxy-15,15-dimethyl-8-(4-(6-(8-(oxetan-3-yl)-3,8-diazabicyclo[3.2.1]octan-3-yl)pyridin-3-yl)benzyl)-3,6,13-trioxo-5-(1,1,1-trifluoro-2-methylpropan-2-yl)-2-oxa-4,7,11,12-tetraazahexadecan-14-yl)carbamate] | 0.25 L/H/kg | 0.92 L/H/kg | 2.46 nM | – | – | – |
| COC(=O)N[C@H](C(=O)N[C@@H](Cc1ccc(-c2cnc(N3CC4CCC(C3)N4C3COC3)nc2)cc1)[C@@H](O)CN(Cc1c(F)cc(-c2ccn(C3CC3)n2)cc1F)NC(=O)[C@@H](NC(=O)OC)C(C)(C)C(F)(F)F)C(C)(C)C(F)(F)F [Example 198, methyl ((5S,8S,9S,14S)-11-(4-(1-cyclopropyl-1H-pyrazol-3-yl)-2,6-difluorobenzyl)-16,16,16-trifluoro-9-hydroxy-15,15-dimethyl-8-(4-(2-(8-(oxetan-3-yl)-3,8-diazabicyclo[3.2.1]octan-3-yl)pyrimidin-5-yl)benzyl)-3,6,13-trioxo-5-(1,1,1-trifluoro-2-methylpropan-2-yl)-2-oxa-4,7,11,12-tetraazahexadecan-14-yl)carbamate] | <0.11 L/H/kg | 0.33 L/H/kg | 2.19 nM | – | – | – |
| COC(=O)N[C@H](C(=O)N[C@@H](Cc1ccc(C#Cc2cnc(N3C[C@H]4C[C@@H]3CN4C3COC3)nc2)cc1)[C@@H](O)CN(Cc1c(F)cc(-c2ccn(C(F)F)n2)cc1F)NC(=O)[C@@H](NC(=O)OC)C(C)(C)C(F)(F)F)C(C)(C)C(F)(F)F [Example 32, Methyl ((5S,8S,9S,14S)-11-(4-(1-(difluoromethyl)-1H-pyrazol-3-yl)-2,6-difluorobenzyl)-16,16,16-trifluoro-9-hydroxy-15,15-dimethyl-8-(4-((2-((1R,4R)-5-(oxetan-3-yl)-2,5-diazabicyclo[2.2.1]heptan-2-yl)pyrimidin-5-yl)ethynyl)benzyl)-3,6,13-trioxo-5-(1,1,1-trifluoro-2-methylpropan-2-yl)-2-oxa-4,7,11,12-tetraazahexadecan-14-yl)carbamate] | – | – | 2.65 nM | <0.11 L/H/kg | 0.59 L/H/kg | – |
| Methyl ((5S,8S,9S,14S)-11-(4-(1-(difluoromethyl)-1H-pyrazol-4-yl)-2,6-difluorobenzyl)-16,16,16-trifluoro-9-hydroxy-15,15-dimethyl-8-(4-((6-(4-(oxetan-3-yl)piperazin-1-yl)pyridin-3-yl)ethynyl)benzyl)-3,6,13-trioxo-5-(1,1-trifluoro-2-methylpropan-2-yl)-2-oxa-4,7,11,12-tetraazahexadecan-14-yl)carbamate [Example 116] | 0.19 L/H/kg | 0.39 L/H/kg | – | – | – | 2.79 nM |
| COC(=O)N[C@H](C(=O)N[C@@H](Cc1ccc(-c2ccc(N3CC4CCC(C3)N4C3COC3)nc2)cc1)[C@@H](O)CN(Cc1c(F)cc(-c2ccn(C)n2)cc1F)NC(=O)[C@@H](NC(=O)OC)C(C)(C)C)C(C)(C)C [Example 206, Methyl ((5S,8S,9S,14S)-5-(tert-butyl)-11-(2,6-difluoro-4-(1-methyl-1H-pyrazol-3-yl)benzyl)-9-hydroxy-15,15-dimethyl-8-(4-(6-(8-(oxetan-3-yl)-3,8-diazabicyclo [3.2.1]octan-3-yl)pyridin-3-yl)benzyl)-3,6,13-trioxo-2-oxa-4,7,11,12-tetraazahexadecan-14-yl)carbamate] | 0.41 L/H/kg | 1.03 L/H/kg | 3.7 nM | – | – | – |
| COC(=O)N[C@H](C(=O)N[C@@H](Cc1ccc(C#Cc2cnc(N3CC4CCC(C3)N4C3COC3)nc2)cc1)[C@@H](O)CN(Cc1ccc(-c2ccn(C(F)F)n2)cc1)NC(=O)[C@@H](NC(=O)OC)C(C)(C)C(F)(F)F)C(C)(C)C(F)(F)F [Example 122, Methyl ((5S,8S,9S,14S)-11-(4-(1-(difluoromethyl)-1H-pyrazol-3-yl)benzyl)-16,16,16-trifluoro-9-hydroxy-15,15-dimethyl-8-(4-((2-(8-(oxetan-3-yl)-3,8-diazabicyclo[3.2.1]octan-3-yl)pyrimidin-5-yl)ethynyl)benzyl)-3,6,13-trioxo-5-(1,1,1-trifluoro-2-methylpropan-2-yl)-2-oxa-4,7,11,12-tetraazahexadecan-14-yl)carbamate] | <0.11 L/H/kg | – | 4.57 nM | – | – | – |
